Test results as given in patent publication US3969529A, “Phenoxyacetic acid derivatives as diuretic agents” (C.E.R.P.H.A., priority 1969, dated 1976).

Tests used:
[1] = Acute toxicity in mice (mortality after 24 h intravenous, 48 h per os); details: mouse, in vivo; for LD50 at 24 h: intravenous, mortality after 24 hours; for LD50 at 48 h: po, per os, mortality after 48 hours
Protocol: The three compounds were administered in the usual way to lots of 10 male mice of average weight 20 gm. Mortality was assessed after 24 hours for the intravenous toxicity and after 48 hours for toxicity per os.

[2] = tested on: non-anaesthetized dogs; assay: Diuretic activity in non-anaesthetized dogs after hydration; assay type: in vivo
Protocol: After hydration with 500 ml physiological water and calculation of the diuresis for 2 hours, CE 3624, CE 3649 and CE 3598 were administered per os at doses of from 10 to 100 mg/kg.
For CE 3624 at 20 mg/kg, the diuresis was quintupled for 3 hours; the same result was obtained at 10 mg/kg. For CE 3649, at the same doses, the diuresis was only doubled. The doses of CE 3598 administered per os were 25,50 and 100 mg/kg. The increase in diuresis was effective during the first hour, and still notable 3 hours after administration of the product.

[3] = tested on: dogs anaesthetized with mebubarbital; assay: Diuretic activity in dogs anaesthetized with mebubarbital; assay type: in vivo
Protocol: The doses injected were of the order of 5 - 30 mg/kg. In most cases, diuresis was decupled for more than 2 hours.
The size of the increase may reach 6 to 7 times, even 10 times, the base diuresis.
In the case of intraduodenal injection or administration per os, the active doses are relatively the same as by intravenous administration.

[4] = tested on: mice; assay: Diuretic activity in mice; assay type: in vivo
Protocol: The three compounds CE 3598, CE 3624, CE 3649 can be shown to be diuretic at doses of from 1 - 50 mg/kg for the first.

[5] = tested on: dogs; assay: Tolerance in dogs, 5 days; assay type: in vivo; details: 50 to 200 mg/kg via the digestive tract, three dogs
[6] = per os, 10 to 100 mg/kg, after hydration with 500 ml physiological water

With `O=C(O)COc1ccc(C(=O)c2ccco2)c(Cl)c1Cl` [CE 3598, 4-(2-furylketo) 2,3-dichloro phenoxyacetic acid] the LD50 at 24 h [1] was 450 mg/kg, the LD50 at 48 h [1] was 1500 mg/kg and the increase in diuresis [2, 6] was “strongly increased”. For the same molecule, the “increase in diuresis 3 hours after administration” value ([2]; per os, 25, 50 and 100 mg/kg) was “still notable”, the “increase in diuresis during the first hour” value ([2]; per os, 25, 50 and 100 mg/kg) was “effective” and the “increase in diuresis 2 hours after injection” value ([3]; intravenous) was “still perceptible”. The “dose provoking substantial diuretic action” value ([3]; intravenous, first 15 minutes) was ~10 mg/kg, the “size of the increase over base diuresis, maximum” value ([3]; intravenous, may reach even) was 10 times and the “diuretic action in the first 15 minutes” value ([3]; intravenous, of the order of 10 mg/kg) was “substantial diuretic action”. For the same molecule, the diuretic activity [4] was “diuretic” and the “symptoms indicating injurious activity” value [5] was “no symptoms which would indicate any injurious activity”.

For `O=C(O)COc1ccc(C(=O)c2cccs2)c(Cl)c1Cl` [CE 3624, 4-(2-thienylketo) 2,3-dichloro phenoxyacetic acid], the LD50 at 24 h [1] was 225 mg/kg, the LD50 at 48 h [1] was 1280 mg/kg and the increase in diuresis ([2]; per os, 10 mg/kg) was “quintupled”. For the same molecule, the “duration of quintupled diuresis” value ([2]; per os, 20 mg/kg) was 3 h, the increase in diuresis ([2]; per os, 20 mg/kg, for 3 hours) was “quintupled” and the increase in diuresis [2, 6] was “strongly increased”. For the same molecule, the diuretic action ([3]; injected, of the order of 5 - 30 mg/kg) was “extremely substantial and precocious”, the “duration of decupled diuresis” value ([3]; injected, of the order of 5 - 30 mg/kg, in most cases) was “more than 2 hours” and the increase in diuresis ([3]; injected, of the order of 5 - 30 mg/kg, in most cases, for more than 2 hours) was “decupled”. For the same molecule, the diuretic activity [4] was “diuretic”, the increase in diuresis ([4]; 25 mg/kg) was “doubled” and the increase in diuresis ([4]; 50 mg/kg) was “quintupled”. The “symptoms indicating injurious activity” value [5] was “no symptoms which would indicate any injurious activity”.

With `Cc1ccc(C(=O)c2ccc(OCC(=O)O)c(Cl)c2Cl)s1` [CE 3649, 4-[2(5-methylthienyl)keto] 2,3-dichloro phenoxyacetic acid] the LD50 at 24 h [1] was 580 mg/kg, the LD50 at 48 h [1] was 2900 mg/kg and the increase in diuresis [2, 6] was “strongly increased”. The increase in diuresis ([2]; per os, same doses as CE 3624 (20 and 10 mg/kg)) was “only doubled”, the diuretic activity [4] was “diuretic” and the “diuretic activity relative to CE 3624” value [4] was “a quarter of that of CE 3624”. The “symptoms indicating injurious activity” value [5] was “no symptoms which would indicate any injurious activity”.
